The values that follow come from US20240158392A1 (Janssen Biotech, Inc., priority 2021, published 2024).

pIC50: −log10 of the molar value.

The target of assay [1] is T1, SIK2 (Homo sapiens, UniProt Q9H0K1). The assay is described as follows: SIK2 Enzymatic Assay High Version 2 (High ATP). Type of assay: biochemical. In short, it runs like this:
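At room temperature, enzyme (6 nM, 2× final) was preincubated with compound for 30 min, then 6 mM ATP and 400 μM HDAC5tide (both 2× final) were added for 2 h. ADP formed was measured by ADP-Glo Max (2 h reagent, 1 h detection) using luminescence.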

For assay [2], the target named is T1, SIK2. The assay is described as follows: SIK2 Enzymatic Assay Version 1 (ADP Glo). Type of assay: biochemical. As to conditions: for IC50: enzyme 0.6 nM, 160 μM ATP and 140 μM HDAC5tide (each 2× final concentration), 30 minutes pre-incubation, 4 hours, ADPGlo luminescence, read-out: SIK2 ADP Glo IC50 (μM) (Test Example 1). The gist of the method: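 Room-temperature ADP-Glo luminescence assay; SIK2 added at 0.6 nM (2× final) and preincubated with compound for 30 min. Reaction stopped with ADP-Glo Reagent for 40 min, then detection reagent for at least 30 min; no-peptide (ATP-only) wells served as negative control.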

T1 sequence (Q9H0K1 whole entry, species assumed): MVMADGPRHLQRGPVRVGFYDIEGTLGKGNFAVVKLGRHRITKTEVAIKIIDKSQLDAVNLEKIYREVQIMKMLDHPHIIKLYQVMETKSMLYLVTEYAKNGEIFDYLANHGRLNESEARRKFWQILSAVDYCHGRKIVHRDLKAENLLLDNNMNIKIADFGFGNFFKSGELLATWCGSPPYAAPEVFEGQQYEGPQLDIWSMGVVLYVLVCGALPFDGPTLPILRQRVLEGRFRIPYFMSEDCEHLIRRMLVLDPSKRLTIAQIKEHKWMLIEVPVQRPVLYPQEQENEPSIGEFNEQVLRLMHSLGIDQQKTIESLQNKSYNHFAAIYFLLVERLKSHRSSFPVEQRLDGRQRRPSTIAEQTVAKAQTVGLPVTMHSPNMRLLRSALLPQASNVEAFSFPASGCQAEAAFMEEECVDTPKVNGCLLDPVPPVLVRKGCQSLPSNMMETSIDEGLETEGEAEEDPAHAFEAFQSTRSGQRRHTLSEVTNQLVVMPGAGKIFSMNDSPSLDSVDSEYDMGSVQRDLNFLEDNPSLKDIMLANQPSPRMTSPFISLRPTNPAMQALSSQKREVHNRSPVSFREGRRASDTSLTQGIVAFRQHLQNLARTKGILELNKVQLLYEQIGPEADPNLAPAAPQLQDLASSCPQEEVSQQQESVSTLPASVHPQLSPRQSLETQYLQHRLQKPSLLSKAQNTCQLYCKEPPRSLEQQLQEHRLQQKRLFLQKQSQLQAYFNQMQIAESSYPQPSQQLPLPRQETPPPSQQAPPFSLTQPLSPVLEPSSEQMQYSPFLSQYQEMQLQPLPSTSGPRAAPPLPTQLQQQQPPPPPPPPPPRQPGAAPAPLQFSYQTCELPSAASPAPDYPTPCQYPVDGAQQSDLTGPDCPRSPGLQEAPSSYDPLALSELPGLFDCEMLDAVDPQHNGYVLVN

In the case of `CN1CC[C@@H](Oc2cnc(C#N)cc2-c2ccn3nc(NC(=O)C4CC4)cc3c2)C[C@H]1C(F)(F)F` (single isomer, unassigned) [Example 29, N-(5-(2-cyano-5-(((2*S,4*R)-1-methyl-2-(trifluoromethyl)piperidin-4-yl)oxy)pyridin-4-yl)pyrazolo[1,5-a]pyridin-2-yl)cyclopropanecarboxamide], in assay [1], the pIC50 was 6.84. Further, the IC50 in assay [2] was 0.00575 µM.
The matching figures for `Cc1cc(-c2ccn3nc(Nc4ccn(C)n4)cc3c2)c(O[C@H]2CC[C@@H](O)CC2)cn1` [Example 184, cis-4-[[6-methyl-4-[2-[(1-methylpyrazol-3-yl)amino]pyrazolo[1,5-a]pyridin-5-yl]-3-pyridyl]oxy]cyclohexanol]: 7.85 and 0.00175 µM.
The corresponding values for `N#Cc1cc(-c2ccn3nc(NC(=O)C4CC4)cc3c2)c(O[C@H]2CCN(C3CC3)C2)cn1` [Example 7, N-[5-[2-cyano-5-[(3S)-1-cyclopropylpyrrolidin-3-yl]oxy-4-pyridyl]pyrazolo[1,5-a]pyridin-2-yl]cyclopropanecarboxamide] are 7.52 and 0.000725 µM.
Consider `N#Cc1cc(-c2ccn3nc(NC(=O)C4CC4)cc3c2)c(O[C@@H]2C[C@@H]3C[C@H]2CN3)cn1` (single isomer, unassigned) [Example 17, N-[5-[5-[[(1*S,4*S,5*R)-2-azabicyclo[2.2.1]heptan-5-yl]oxy]-2-cyano-4-pyridyl]pyrazolo[1,5-a]pyridin-2-yl]cyclopropanecarboxamide], for which, in assay [1], the pIC50 is 8.38. In addition, in assay [2], the IC50 stood at 0.000402 µM.
The corresponding values for `N#Cc1cc(-c2ccn3nc(NC(=O)C4CC4)cc3c2)c(OC[C@@H]2CC[C@H](N)C2)cn1` [Example 20, N-[5-[5-[[(1R,3S)-3-aminocyclopentyl]methoxy]-2-cyano-4-pyridyl]pyrazolo[1,5-a]pyridin-2-yl]cyclopropanecarboxamide] are 7.99 and 0.00122 µM.
The corresponding values for `Cc1cc(-c2ccn3nc(NC(=O)C4CC4)cc3c2)c(OC2CN(C)C2)cn1` [Example 115, N-(5-(2-methyl-5-((1-methylazetidin-3-yl)oxy)pyridin-4-yl)pyrazolo[1,5-a]pyridin-2-yl)cyclopropanecarboxamide] are 6.80 and 0.0095 µM.
The matching figures for `N#Cc1cc(-c2ccn3nc(NC(=O)C4CC4)cc3c2)c(OCC2CCC(O)(C(F)(F)F)CC2)cn1` (racemic) [Example 178, rac-N-[5-[2-cyano-5-[[4-hydroxy-4-(trifluoromethyl)cyclohexyl]methoxy]-4-pyridyl]pyrazolo[1,5-a]pyridin-2-yl]cyclopropanecarboxamide]: 7.89 and 0.000605 µM.
For the molecule `Cc1cc(-c2ccn3nc(Nc4ccccn4)cc3c2)c(O[C@H]2CC[C@H](O)CC2)cn1` [Example 182, trans-4-[[6-methyl-4-[2-(2-pyridylamino)pyrazolo[1,5-a]pyridin-5-yl]-3-pyridyl]oxy]cyclohexanol], the pIC50 in assay [1] was 7.47. The IC50 in assay [2] was 0.00176 µM.
`N#Cc1cc(-c2ccn3nc(NC(=O)C4CC4)cc3c2)c(OC2CC3(CNC3)C2)cn1` [Example 587, N-[5-[5-(6-azaspiro[3.3]heptan-2-yloxy)-2-cyano-4-pyridyl]pyrazolo[1,5-a]pyridin-2-yl]cyclopropanecarboxamide] showed a pIC50 in assay [1] of 7.06. Further, the IC50 in assay [2] was 0.00381 µM.
The corresponding values for `N#Cc1cc(-c2ccn3nc(NC(=O)C4CC4)cc3c2)c(OC[C@H]2C[C@@H](N)C2)cn1` [Example 175, N-(5-(5-(((1s,3s)-3-aminocyclobutyl)methoxy)-2-cyanopyridin-4-yl)pyrazolo[1,5-a]pyridin-2-yl)cyclopropanecarboxamide] are 8.07 and 0.000443 µM.
The matching figures for `Cc1cc(-c2ccn3nc(NC(=O)C4CC4)cc3c2)c(OC[C@@H]2CN[C@H](C)CO2)cn1` [Example 168, N-[5-[2-methyl-5-[[(2S,5R)-5-methylmorpholin-2-yl]methoxy]-4-pyridyl]pyrazolo[1,5-a]pyridin-2-yl]cyclopropanecarboxamide]: 8.33 and 0.000382 µM.
As for `N#Cc1cc(-c2ccn3nc(NC(=O)C4CC4)cc3c2)c(OCc2ccccc2)cn1` [Example 753, N-[5-(5-benzyloxy-2-cyano-4-pyridyl)pyrazolo[1,5-a]pyridin-2-yl]cyclopropanecarboxamide], the figures for the pIC50 in assay [1] and in assay [2] were 6.32 and 8.53, respectively.

The term pIC50 denotes the negative decadic logarithm of the IC50, by convention in mol/L. One may read the IC50 as the concentration at which inhibition is half-maximal.
